Measurements: ChEMBL document CHEMBL3880421, “Indazole compounds and pharmaceutical compositions for inhibiting protein kinases, and methods for their use” (2003)

Columns and labels:
[1] = Antiproliferative activity against VEGF-stimulated HUVEC cells assessed as reduction in cell viability at 0.5 nM preincubated for 1 hr followed by addition of VEGF measured after 72 hrs by MTT assay; type: functional; conditions: Homo sapiens
[2] = Antiproliferative activity against VEGF-stimulated HUVEC cells assessed as reduction in cell viability at 2 nM preincubated for 1 hr followed by addition of VEGF measured after 72 hrs by MTT assay; type: functional; conditions: Homo sapiens

SMILES | inhibition at 0.0005 µM [1] | inhibition at 0.002 µM [2]
CCCCCCC(C)NC(=O)c1ccccc1Nc1ccc2c(/C=C/c3ccccn3)n[nH]c2c1 (configuration not stated) | 35% | 63%
O=C(NCCCN1CCCC1)c1ccccc1Nc1ccc2c(/C=C/c3ccccn3)n[nH]c2c1 | 20% | 2%
O=C(N[C@H]1CC[C@H](O)CC1)c1ccccc1Nc1ccc2c(/C=C/c3ccccn3)n[nH]c2c1 | 23% | 6%
CCC(C)CNC(=O)c1ccccc1Nc1ccc2c(/C=C/c3ccccn3)n[nH]c2c1 (configuration not stated) | 24% | 84%
CC(=O)NNC(=O)c1ccccc1Nc1ccc2c(/C=C/c3ccccn3)n[nH]c2c1 | 4% | 10%
CCCCN(CC)CCNC(=O)c1ccccc1Nc1ccc2c(/C=C/c3ccccn3)n[nH]c2c1 | 2% | 6%
CN(C)c1ccc(CNC(=O)c2ccccc2Nc2ccc3c(/C=C/c4ccccn4)n[nH]c3c2)cc1 | 32% | 24%
NC(=O)NNC(=O)c1ccccc1Nc1ccc2c(/C=C/c3ccccn3)n[nH]c2c1 | 19% | 5%
CC(C)NC(=O)c1ccccc1Nc1ccc2c(/C=C/c3ccccn3)n[nH]c2c1 | 22% | 43%
O=C(NCCCN(CCO)CCO)c1ccccc1Nc1ccc2c(/C=C/c3ccccn3)n[nH]c2c1 | 4% | 4%
Cn1cccc1C(=O)NNC(=O)c1ccccc1Nc1ccc2c(/C=C/c3ccccn3)n[nH]c2c1 | 68% | 49%
O=C(NCC1CCC=CO1)c1ccccc1Nc1ccc2c(/C=C/c3ccccn3)n[nH]c2c1 (configuration not stated) | 37% | 16%
CC(C)CNC(=O)c1ccccc1Nc1ccc2c(/C=C/c3ccccn3)n[nH]c2c1 | 4 to 31% | 29 to 36%
O=C(NNc1ccccn1)c1ccccc1Nc1ccc2c(/C=C/c3ccccn3)n[nH]c2c1 | 19 to 32% | 35 to 92%
NS(=O)(=O)c1ccc(CCNC(=O)c2ccccc2Nc2ccc3c(/C=C/c4ccccn4)n[nH]c3c2)cc1 | 26% | 37%
CNNC(=O)c1ccccc1Nc1ccc2c(/C=C/c3ccccn3)n[nH]c2c1 | 13% | 31%
O=C(N[C@@H]1CC=CC[C@@H]1CO)c1ccccc1Nc1ccc2c(/C=C/c3ccccn3)n[nH]c2c1 | 58% | 37%
CCN(CC)C/C=C/CNC(=O)c1ccccc1Nc1ccc2c(/C=C/c3ccccn3)n[nH]c2c1 | 10% | 29%
O=C(NCCN1CCNCC1)c1ccccc1Nc1ccc2c(/C=C/c3ccccn3)n[nH]c2c1 | 37% | 12%
Cc1cc(NC(=O)c2ccccc2Nc2ccc3c(/C=C/c4ccccn4)n[nH]c3c2)n(C)n1 | 39% | 13%
C=C(C)CNC(=O)c1ccccc1Nc1ccc2c(/C=C/c3ccccn3)n[nH]c2c1 | 65% | 110%
O=C(NCCCCc1ccccc1)c1ccccc1Nc1ccc2c(/C=C/c3ccccn3)n[nH]c2c1 | 51% | 67%
CC(C)OCCCNC(=O)c1ccccc1Nc1ccc2c(/C=C/c3ccccn3)n[nH]c2c1 | 34% | 99%
CN(CCCNC(=O)c1ccccc1Nc1ccc2c(/C=C/c3ccccn3)n[nH]c2c1)c1ccccc1 | 18% | 25%
CC(C)[C@H](CO)NC(=O)c1ccccc1Nc1ccc2c(/C=C/c3ccccn3)n[nH]c2c1 | 47% | -4%

SMILES | inhibition at 0.0005 µM [1] | inhibition at 0.002 µM [2]
O=C(NCc1ccccn1)c1ccccc1Nc1ccc2c(/C=C/c3ccccn3)n[nH]c2c1 | 6% | 43%
O=C(NNC(=O)c1ccccc1Nc1ccc2c(/C=C/c3ccccn3)n[nH]c2c1)c1ccco1 | 26% | 71%
O=C(NCC1(O)CCCCC1)c1ccccc1Nc1ccc2c(/C=C/c3ccccn3)n[nH]c2c1 | 26% | -19%
CCOC(CCNC(=O)c1ccccc1Nc1ccc2c(/C=C/c3ccccn3)n[nH]c2c1)OCC | 30% | 70%
CN(C)CCNC(=O)c1ccccc1Nc1ccc2c(/C=C/c3ccccn3)n[nH]c2c1 | 20% | 10%
N#CC1CCC(CNC(=O)c2ccccc2Nc2ccc3c(/C=C/c4ccccn4)n[nH]c3c2)CC1 (configuration not stated) | 36% | 66%
O=C(O)CNC(=O)c1ccccc1Nc1ccc2c(/C=C/c3ccccn3)n[nH]c2c1 | 8% | 23%
O=C(NCCc1ccccc1)c1ccccc1Nc1ccc2c(/C=C/c3ccccn3)n[nH]c2c1 | 15% | 99%
O=C(NC1CCSC1=O)c1ccccc1Nc1ccc2c(/C=C/c3ccccn3)n[nH]c2c1 (configuration not stated) | 25% | 40%
CCN1CCC[C@@H]1CNC(=O)c1ccccc1Nc1ccc2c(/C=C/c3ccccn3)n[nH]c2c1 | 8% | 37%
Nc1ccc(CCNC(=O)c2ccccc2Nc2ccc3c(/C=C/c4ccccn4)n[nH]c3c2)cc1 | 32% | 31%
CCN1CCCC1CNC(=O)c1ccccc1Nc1ccc2c(/C=C/c3ccccn3)n[nH]c2c1 (configuration not stated) | 18% | 5%
O=C(NCCNc1ccccc1)c1ccccc1Nc1ccc2c(/C=C/c3ccccn3)n[nH]c2c1 | 19% | 89%
O=C(N[C@H](CO)[C@H](O)c1ccccc1)c1ccccc1Sc1ccc2c(/C=C/c3ccccn3)n[nH]c2c1 | -1% | –
O=C(N[C@H](CO)[C@@H](O)c1ccccc1)c1ccccc1Sc1ccc2c(/C=C/c3ccccn3)n[nH]c2c1 | 10% | –
CC(O)c1cccc(NC(=O)c2ccccc2Sc2ccc3c(/C=C/c4ccccn4)n[nH]c3c2)c1 (configuration not stated) | -32% | –
Cc1ccc(F)cc1NC(=O)c1ccccc1Sc1ccc2c(/C=C/c3ccccn3)n[nH]c2c1 | 12% | –
O=C(N[C@H](CO)Cc1ccccc1)c1ccccc1Sc1ccc2c(/C=C/c3ccccn3)n[nH]c2c1 | 1% | –
Cn1c(NC(=O)c2ccccc2Sc2ccc3c(/C=C/c4ccccn4)n[nH]c3c2)nc2ccccc21 | -21% | –
Cc1nc(O)cc(NC(=O)c2ccccc2Sc2ccc3c(/C=C/c4ccccn4)n[nH]c3c2)n1 | 3% | –
O=C(Nc1cc(Cl)ccc1O)c1ccccc1Sc1ccc2c(/C=C/c3ccccn3)n[nH]c2c1 | -22% | –
O=C(N[n+]1ccccc1)c1ccccc1Nc1ccc2c(/C=C/c3ccccn3)n[nH]c2c1 | 48% | –
O=C(Nc1ccc(F)c(F)c1)c1ccccc1Sc1ccc2c(/C=C/c3ccccn3)n[nH]c2c1 | -38% | –
COc1ccc(NC(=O)c2ccccc2Sc2ccc3c(/C=C/c4ccccn4)n[nH]c3c2)cc1 | 4% | –
C[C@@H](NC(=O)c1ccccc1Sc1ccc2c(/C=C/c3ccccn3)n[nH]c2c1)c1cccc2ccccc12 | 1% | –

SMILES | inhibition at 0.0005 µM [1] | inhibition at 0.002 µM [2]
Cc1c(O)cccc1NC(=O)c1ccccc1Sc1ccc2c(/C=C/c3ccccn3)n[nH]c2c1 | 1% | –
CCc1cccc(NC(=O)c2ccccc2Sc2ccc3c(/C=C/c4ccccn4)n[nH]c3c2)n1 | -12% | –
O=C(Nc1cncc(Cl)n1)c1ccccc1Sc1ccc2c(/C=C/c3ccccn3)n[nH]c2c1 | 17% | –
CC(C)(C)CC(C)(C)NC(=O)c1ccccc1Sc1ccc2c(/C=C/c3ccccn3)n[nH]c2c1 | 0% | –
O=C(Nc1cccc(-c2nnco2)c1)c1ccccc1Sc1ccc2c(/C=C/c3ccccn3)n[nH]c2c1 | -23% | –
C[C@@H](O)CNC(=O)c1ccccc1Sc1ccc2c(/C=C/c3ccccn3)n[nH]c2c1 | 22% | –
CCC(C)(C)NC(=O)c1ccccc1Sc1ccc2c(/C=C/c3ccccn3)n[nH]c2c1 | -29% | –
CC(C)ONC(=O)c1ccccc1Nc1ccc2c(/C=C/c3ccccn3)n[nH]c2c1 | 35% | –
O=C(Nc1c(F)cccc1Cl)c1ccccc1Sc1ccc2c(/C=C/c3ccccn3)n[nH]c2c1 | 12% | –
O=C(Nc1ccc2ncsc2c1)c1ccccc1Sc1ccc2c(/C=C/c3ccccn3)n[nH]c2c1 | -20% | –
C[C@H](NC(=O)c1ccccc1Sc1ccc2c(/C=C/c3ccccn3)n[nH]c2c1)[C@H](O)c1ccccc1 | 9% | –
CCONC(=O)c1ccccc1Nc1ccc2c(/C=C/c3ccccn3)n[nH]c2c1 | 72% | –
CCCCNC(=O)c1ccccc1Nc1ccc2c(/C=C/c3ccccn3)n[nH]c2c1 | 52% | –
C#CCNC(=O)c1ccccc1Nc1ccc2c(/C=C/c3ccccn3)n[nH]c2c1 | 95% | –
COc1ccccc1NC(=O)c1ccccc1Sc1ccc2c(/C=C/c3ccccn3)n[nH]c2c1 | -8% | –
O=C(Nc1cc(F)c(F)c(F)c1)c1ccccc1Sc1ccc2c(/C=C/c3ccccn3)n[nH]c2c1 | 0% | –
O=C(NCC12CC3CC(CC(C3)C1)C2)c1ccccc1Sc1ccc2c(/C=C/c3ccccn3)n[nH]c2c1 | 1% | –
COc1ccccc1CNC(=O)c1ccccc1Nc1ccc2c(/C=C/c3ccccn3)n[nH]c2c1 | 36% | –
O=C(NCc1ccco1)c1ccccc1Nc1ccc2c(/C=C/c3ccccn3)n[nH]c2c1 | 70% | –
Cc1ccc(F)c(NC(=O)c2ccccc2Sc2ccc3c(/C=C/c4ccccn4)n[nH]c3c2)c1 | -1% | –
O=C(NNC(=O)c1ccccc1Nc1ccc2c(/C=C/c3ccccn3)n[nH]c2c1)c1cccnc1 | 31% | –
O=C(N[C@@H](CO)Cc1ccccc1)c1ccccc1Sc1ccc2c(/C=C/c3ccccn3)n[nH]c2c1 | -3% | –
C[N+](C)(C)NC(=O)c1ccccc1Nc1ccc2c(/C=C/c3ccccn3)n[nH]c2c1 | 8% | –
Cc1cc(NC(=O)c2ccccc2Sc2ccc3c(/C=C/c4ccccn4)n[nH]c3c2)ccc1Cl | -43% | –
